What was measured:
[1] = molecular target: T1, EPAC1 (Homo sapiens, UniProt O95398); assay: Phosphorylation of Akt in HEK293/EPAC1 cells; assay type: cell-based; conditions: stimulation with 007-AM
T1 sequence (O95398 1-923): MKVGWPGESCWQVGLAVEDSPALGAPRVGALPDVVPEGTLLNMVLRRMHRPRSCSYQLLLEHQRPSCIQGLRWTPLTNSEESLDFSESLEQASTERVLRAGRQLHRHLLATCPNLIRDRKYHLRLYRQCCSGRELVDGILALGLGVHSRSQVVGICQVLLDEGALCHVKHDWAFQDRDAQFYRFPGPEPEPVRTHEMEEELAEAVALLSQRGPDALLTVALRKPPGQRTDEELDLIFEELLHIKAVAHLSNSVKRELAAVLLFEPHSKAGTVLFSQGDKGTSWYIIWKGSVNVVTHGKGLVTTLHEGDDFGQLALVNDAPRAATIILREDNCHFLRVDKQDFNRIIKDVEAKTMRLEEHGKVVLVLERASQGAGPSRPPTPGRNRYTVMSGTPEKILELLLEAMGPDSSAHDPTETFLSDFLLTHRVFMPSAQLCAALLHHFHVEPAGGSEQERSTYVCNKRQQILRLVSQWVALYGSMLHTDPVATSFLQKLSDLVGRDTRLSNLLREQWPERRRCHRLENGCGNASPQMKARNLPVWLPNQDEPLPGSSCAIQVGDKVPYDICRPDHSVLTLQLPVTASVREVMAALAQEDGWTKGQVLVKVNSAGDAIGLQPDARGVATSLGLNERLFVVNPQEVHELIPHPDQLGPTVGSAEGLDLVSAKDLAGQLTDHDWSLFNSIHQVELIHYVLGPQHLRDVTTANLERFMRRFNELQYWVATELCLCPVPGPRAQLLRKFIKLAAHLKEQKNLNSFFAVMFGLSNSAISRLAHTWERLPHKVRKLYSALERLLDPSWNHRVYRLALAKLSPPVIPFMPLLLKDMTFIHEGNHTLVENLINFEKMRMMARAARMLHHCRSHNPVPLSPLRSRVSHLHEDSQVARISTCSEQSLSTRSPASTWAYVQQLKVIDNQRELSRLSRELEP
Description: (§1) FIG. 10. Effect of ESI-09 on EPAC-mediated PKB phosphorylation in HEK293/EPAC1, HEK293/EPAC2, and human vascular smooth muscle (hVSMC) cells. Serum-starved HEK293/EPAC1, HEK293/EPAC2, and hVSMC cells with or without pretreatment of […] ESI-09 were stimulated with 10 μM 007-AM. Cell lysates were subjected to Western blot analysis as described under “Experimental Procedures” using anti-phospho-Ser473-specific (PKB-P473) and anti-phospho-Thr308-specific (PKB-P308) PKB antibodies.
(§2) Cellular proteins from cell lysates treated with various reagents were separated by SDS-PAGE and transferred to polyvinylidene difluoride membrane. The levels of Akt activation were probed by immuno-blotting analyses using anti-phosphate T308 PKB antibodies (1:1000) and anti-phosphate S473 PKB antibodies (1:1000). At least three independent experiments were performed for each Western blot.

[2] = molecular target: T2, EPAC2 (Homo sapiens, UniProt Q8WZA2); assay: Phosphorylation of Akt in HEK293/EPAC2 cells; assay type: cell-based; conditions: stimulation with 007-AM
T2 construct: HEK293 cells that ectopically express full-length EPAC2 proteins; expressed in transfected cells; host or cells: HEK293
Description: as §1, §2

[3] = molecular target: T2, EPAC2; assay: Rap1 activation assay in HEK293/EPAC2 cells; assay type: cell-based; conditions: for 007-AM induced Rap1 activation: HEK293/EPAC2 cells, pre-treatment with 10 μM compound
Description: (§3) FIGS. 9A-9B. Effects of EPAC2-specific antagonists on 007-AM-mediated cellular activation of Rap1. […] GTP-bound Rap1 (Rap1GTP) obtained by a Ral-GDSRBD-GST pull-down assay and total cellular Rap1 were detected by immunoblotting with Rap1-specific antibody. […] At test was used to determine statistical significance (*P<0.05).
(§4) Cellular activation of Rap1 was determined by pull-down of lysates derived from human vascular smooth muscle cell and HEK293 cells stably expressing EPAC1 or EPAC2 employing Ral-GDS-RBD-GST affinity beads as described earlier (Mei and Cheng (2005) Molecular Biosystems 1: 325-331).

[4] = test system: AsPC-1 and PANC-1 cells; assay: Cell adhesion assay on collagen I matrix; assay type: cell-based; conditions: stimulation with 10 μM 007-AM
Description: FIG. 13 ESI-09 inhibits EPAC1-mediated adhesion of PDA cells on collagen I. AsPC-1 and PANC-1 cells were stimulated with vehicle or 10 μM 007-AM after treatment with the indicated concentrations of ESI-09 for 5 minutes. Bars represent mean±s.d.
It has been recently reported that EPAC1 is over-expressed in pancreatic adenocarcinoma (Lorenz et al. (2008) Pancreas 37: 102-103). However, the functional role of EPAC1 elevation in this neoplasm is not clear. The inventors sought to employ ESI-09 to determine the role of EPAC1 signaling in pancreatic cancer. […] In order to determine if the observed impact on cell migration is EPAC1 specific, the effect of suppressing EPAC1 expression on AsPC-1 and PANC-1 migration using RNAi was examined. […] To further determine how ESI-09 inhibits PDA cell migration and invasion, a cell adhesion assay was performed using a collagen I matrix. […] To determine the in vivo anti-metastatic effect of ESI-09, MIA PaCa-2 stably expressing luciferase were orthotopically implanted into the pancreas of athymic nude mice. The mice were randomly divided into two groups and treated with vehicle or ESI-09 (50 mg/kg per day, oral gavage), respectively. The growth and metastasis of the tumors were monitored by weekly bioluminescence imaging using the IVIS bioluminescence imaging system.

[5] = test system: type II PKA holoenzyme; assay: PKA counter screening, type II holoenzyme; assay type: biochemical; conditions: 25 μM compound
Description: (§5) Kinase activity of the type I and II PKA holoenzyme are measured spectrophotometrically in a 96-well plate with a coupled enzyme assay as described previously (Cook et al. (1982) Biochemistry 21: 5794-5799). In this assay, the formation of ADP is coupled to the oxidation of NADH by the pyruvate kinase/lactate dehydrogenase reactions so the reaction rate can be determined by following the oxidation of NADH, reflected by a decrease in absorbance at 340 nm. […] Reactions are pre-equilibrated at room temperature and initiated by adding the Kemptide substrate (final concentration 0.26 mM).

[6] = test system: type I PKA holoenzyme; assay: PKA counter screening, type I holoenzyme; assay type: biochemical; conditions: 25 μM compound
Description: as §5

[7] = molecular target: T1, EPAC1; assay: Rap1 activation assay in HEK293/EPAC1 cells; assay type: cell-based
Description: as §3, §4

[8] = molecular target: T1, EPAC1; assay: Rap1-GDP exchange (GEF) activity assay, EPAC1
[9] = molecular target: T3, EPAC2 (Mus musculus, UniProt Q9EQZ6); assay: 8-NBD-cAMP competition binding to EPAC2
T3 sequence (Q9EQZ6 1-1011): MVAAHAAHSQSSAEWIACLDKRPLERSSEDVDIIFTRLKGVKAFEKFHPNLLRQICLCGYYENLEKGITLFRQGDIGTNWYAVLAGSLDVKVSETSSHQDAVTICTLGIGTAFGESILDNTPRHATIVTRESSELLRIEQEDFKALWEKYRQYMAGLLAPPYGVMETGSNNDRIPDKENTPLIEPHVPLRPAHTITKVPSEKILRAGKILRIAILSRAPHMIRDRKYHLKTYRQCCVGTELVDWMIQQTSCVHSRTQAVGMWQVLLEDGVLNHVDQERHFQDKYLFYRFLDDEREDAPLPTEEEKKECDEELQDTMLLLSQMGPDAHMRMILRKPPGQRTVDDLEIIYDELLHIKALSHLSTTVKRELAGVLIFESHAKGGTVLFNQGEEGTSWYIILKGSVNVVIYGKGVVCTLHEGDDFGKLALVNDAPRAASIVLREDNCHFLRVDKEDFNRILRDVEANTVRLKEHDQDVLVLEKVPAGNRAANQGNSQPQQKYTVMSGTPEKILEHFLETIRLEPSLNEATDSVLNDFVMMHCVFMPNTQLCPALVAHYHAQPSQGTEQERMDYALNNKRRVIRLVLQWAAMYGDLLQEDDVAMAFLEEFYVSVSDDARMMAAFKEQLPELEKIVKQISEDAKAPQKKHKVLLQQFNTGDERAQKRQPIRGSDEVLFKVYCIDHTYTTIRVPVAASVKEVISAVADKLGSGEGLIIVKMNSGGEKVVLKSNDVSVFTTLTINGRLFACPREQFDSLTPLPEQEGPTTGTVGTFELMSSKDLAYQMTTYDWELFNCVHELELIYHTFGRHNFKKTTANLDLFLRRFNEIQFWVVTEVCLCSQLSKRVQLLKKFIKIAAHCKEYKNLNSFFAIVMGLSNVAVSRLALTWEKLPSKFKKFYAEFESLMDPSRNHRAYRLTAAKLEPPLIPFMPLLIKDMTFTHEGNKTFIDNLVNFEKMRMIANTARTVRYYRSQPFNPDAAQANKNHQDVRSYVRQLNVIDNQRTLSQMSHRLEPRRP
Description: Primary screen is performed in black 96-well or 384-well microplates. As an example, 50 nM EPAC2 solution is prepared in 20 mM Tris buffer, pH 7.5, containing 150 mM NaCl, 1 mM EDTA, and 1 mM […]. […] Sample is dispensed into plate and test compounds added from 96-well mother plates. […] Fluorescence intensity signal from 8-NBD was recorded at room temperature (rt) before and after tested compounds are added using SpectaMaxM2 microplate reader (Molecular Devices, Silicon Valley, Calif., USA) with excitation/emission wavelengths set at 470/540 nm.

T2 sequence (Q8WZA2 whole entry, species assumed): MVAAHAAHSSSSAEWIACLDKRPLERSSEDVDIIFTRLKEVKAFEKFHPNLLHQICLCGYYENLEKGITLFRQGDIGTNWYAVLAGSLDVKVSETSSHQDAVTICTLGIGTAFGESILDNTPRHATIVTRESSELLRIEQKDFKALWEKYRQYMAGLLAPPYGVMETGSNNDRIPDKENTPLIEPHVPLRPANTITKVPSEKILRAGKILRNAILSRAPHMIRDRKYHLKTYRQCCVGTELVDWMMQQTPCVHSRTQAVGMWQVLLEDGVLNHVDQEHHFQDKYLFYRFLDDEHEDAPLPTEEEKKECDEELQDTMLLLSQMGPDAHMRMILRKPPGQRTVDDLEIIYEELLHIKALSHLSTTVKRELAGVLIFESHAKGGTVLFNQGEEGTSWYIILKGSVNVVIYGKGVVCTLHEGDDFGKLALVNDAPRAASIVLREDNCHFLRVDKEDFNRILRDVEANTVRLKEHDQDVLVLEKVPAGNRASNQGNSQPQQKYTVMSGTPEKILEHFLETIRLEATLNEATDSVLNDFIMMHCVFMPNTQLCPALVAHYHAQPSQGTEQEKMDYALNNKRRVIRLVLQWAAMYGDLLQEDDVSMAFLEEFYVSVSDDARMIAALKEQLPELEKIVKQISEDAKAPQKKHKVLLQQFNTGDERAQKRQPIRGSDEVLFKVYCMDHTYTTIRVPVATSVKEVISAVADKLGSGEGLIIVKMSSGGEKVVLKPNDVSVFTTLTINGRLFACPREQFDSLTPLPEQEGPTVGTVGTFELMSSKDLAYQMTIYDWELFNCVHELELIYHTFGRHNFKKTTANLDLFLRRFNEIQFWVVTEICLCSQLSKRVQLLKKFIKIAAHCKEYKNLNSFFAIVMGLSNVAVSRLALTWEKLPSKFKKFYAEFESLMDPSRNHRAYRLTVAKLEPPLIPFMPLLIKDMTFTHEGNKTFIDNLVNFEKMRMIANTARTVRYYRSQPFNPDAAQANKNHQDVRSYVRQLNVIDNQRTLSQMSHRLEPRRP

Which “Akt phosphorylation for both T308 and S473” value [1] does the source give for `CO[C@@H]1[C@@H]2OP(=O)(OCOC(C)=O)OC[C@H]2O[C@H]1n1c(Sc2ccc(Cl)cc2)nc2c(N)ncnc21` (stereo partly drawn) [Compound 007-AM, 8-(4-Chlorophenylthio)-2′-O-methyladenosine-3′,5′-cyclic monophosphate, acetoxymethyl ester, reference compound] here?
The value was “increase”.

What about the “Akt phosphorylation for both T308 and S473” value [2] of the same compound?
Its value is “increase”.

And the “fraction of GTP-bound cellular Rap1” value ([3]; HEK293/EPAC2 cells treated with 007-AM)?
The value was “increase”.

What about the cell adhesion [4] of the same compound?
Its cell adhesion is “increase”.

For `O=S(=O)(NCCNC/C=C/c1ccc(Br)cc1)c1cccc2cnccc12` [Compound H89, reference compound], which “cAMP-induced type II PKA holoenzyme activation” value [5] is on record?
The value was “blocked the type I or II PKA activities completely”.

And the “cAMP-induced type I PKA holoenzyme activation” value [6]?
Its value is “blocked the type I or II PKA activities completely”.

What does the source list for `Cc1ccc(S(=O)(=O)c2c(C)cc(C)cc2C)cc1` [ESI-05]?
007-AM induced Rap1 activation [3]: significant reduction; cAMP-induced type II PKA holoenzyme activation [5]: did not significantly alter; 007-AM induced Rap1 activation [7]: ineffective; cAMP-induced type I PKA holoenzyme activation [6]: did not significantly alter; suppressing EPAC1 GEF activity ([8]; cAMP-mediated Rap1-GDP exchange): completely ineffective; EPAC1 IC50 ([8]; suppressing EPAC1 GEF activity, 25 μM cAMP): NMA*

Which “Relative Potency (RA)” value ([9]; RA = IC50, cAMP/IC50, compound) does the source give for `Cc1ccc(C)c(CSc2nc(C3CCCCC3)c(C#N)c(=O)[nH]2)c1` [ESI-08] here?
The value was 4.5.

What about the IC50 ([9]; competing with 8-NBD-cAMP in binding EPAC2, read-out: Apparent IC50) of the same compound?
The IC50 was 8.7 ± 1.1 µM.

What about the “007-AM induced Rap1 activation” value [3] of the same compound?
Its value is “much less effective”.
